Measured values taken from patent US12729377B2, “RNAi agents and compositions for inhibiting expression of angiopoietin-like 3 (ANGPTL3), and methods of use” (Arrowhead Pharmaceuticals, Inc., priority 2017, dated 2026).
In the oligonucleotide strings, read from the 5' end, every base follows the letter of its sugar. An asterisk marks phosphorothioate; unmarked linkages are phosphodiester. Other units and linkages are bracketed, terminal groups are in braces. A string of capitals states the bases alone. {NAG37} = tridentate N-acetyl-galactosamine targeting ligand, structure (NAG37)s; [invAb] = inverted abasic unit; m = 2'-O-methyl; f = 2'-fluoro

How the values were obtained:
ANGPTL3 gene [1] = test: Example 11: dose response, serum HDL in mice; type: in vivo, C57bl/6 mice
Method: To assess the dose response of ANGPTL3 RNAi agent AD05488, six- to eight-week-old female C57bl/6 mice were used. Pre-dose serum samples were taken at day −1 after a four hour fast. At day 1, each mouse was given a single subcutaneous administration of 200 μl containing the respective mg/kg dose of an ANGPTL3 RNAi agent in D5W (dextrose in 5% water), or control (D5W) with no RNAi agent, according to the dosing groups recited in Table 53:
The RNAi agent tested (AD05488) included a modified sequence and an N-acetyl-galactosamine-containing targeting ligand conjugated to the 5′ terminal end of the sense strand. (See Tables 3, 4, and 5 for modified sequences and targeting ligand structures). The injections were performed between the skin and muscle (i.e. subcutaneous injections) into the loose skin over the neck and shoulder area. Four (4) mice in each group were tested (n=4). Serum was collected on days 8, 15, 22, and 29. Mice were fasted for four hours prior to each collection. ANGPTL3 protein levels in serum were measured by ELISA assay (R&D Systems), according to the manufacturer's recommendations. Triglycerides, total cholesterol, high-density lipoprotein (HDL), and low-density lipoprotein (LDL) in serum were measured on a Cobas® Integra 400 (Roche Diagnostics), according to the manufacturer's recommendations.
The ANGPTL3 protein levels, triglyceride levels, total cholesterol levels, HDL levels, and LDL levels for each animal were normalized. For normalization, the level of ANGPTL3 protein, triglyceride, HDL, and total cholesterol, respectively, for each animal at a time point, was divided by the pre-treatment level of expression in that animal (in this case at day −1) to determine the ratio of expression “normalized to pre-treatment.” Expression at a specific time point was then normalized to the D5W control group by dividing the “normalized to pre-treatment” ratio for an individual animal by the mean “normalized to pretreatment” ratio of all mice in the D5W control group.

ANGPTL3 gene [2] = test: Example 12: serum HDL in LDLR knockout mice; type: in vivo, LDLR KO mice; conditions: 3.0 mg/kg sc day 1
From the text: To evaluate the effect of RNAi agent administration in a disease model, mice having a genetic mutation for the LDL receptor (referred to herein as LDLR KO mice) were commercially obtained (The Jackson Laboratory). The LDLR KO mice are homozygous for the Ldlr^tm1Her mutation, and have elevated serum cholesterol levels, particularly when placed on a high fat diet. For three weeks prior to the onset of the study, thirty-nine (39) LDLR KO mice were placed on a high fat diet (Teklad Custom Diets TD.88137). An additional eight (8) LDLR KO mice were placed on a normal chow diet over the same three-week period. Pre-dose serum samples were taken on day −15 and day −1 after a four hour fast. At day 1, each mouse was given a single subcutaneous administration of 200 μl/30 g animal body weight containing the respective mg/kg dose of an ANGPTL3 RNAi agent in D5W (dextrose in 5% water), control (D5W) with no RNAi agent, or a control RNAi agent that included a nucleotide sequence designed to target the Hepatitis B Virus (HBV) genome. A second injection of the same formulation was administered to the animals on day 29. The dosing regimen for the study is recited in the following Table 60:
Each mouse remained on its respective diet through the duration of study. The RNAi agent tested (AD05488) included a modified sequence and an N-acetyl-galactosamine-containing targeting ligand conjugated to the 5′ terminal end of the sense strand. (See Tables 3, […] modified sequences and targeting ligand structures). The injections were performed between the skin and muscle (i.e. subcutaneous injections) into the loose skin over the neck and shoulder area. Serum was collected on days 8, 15, 22, 29 (pre-second dose), 36, 43, 50, and 57. LDLR KO mice were fasted for four hours prior to each collection. On day 15, four (4) LDLR KO mice from Groups 1, 2, and 3 (i.e., the groups being administered the high fat “Western” diet) were sacrificed after serum collection, and on day 29, an additional four (4) LDLR KO mice from Groups 1, 2, and 3 were sacrificed after serum collection, for the purpose of performing mRNA assessments.
ANGPTL3 protein levels in serum were measured by ELISA assay (R&D Systems), according to the manufacturer's recommendations. Triglycerides, total cholesterol, high-density lipoprotein (HDL), and low-density lipoprotein (LDL) in serum were measured on a Cobas® Integra 400 (Roche Diagnostics), according to the manufacturer's recommendations.
The ANGPTL3 protein levels, triglyceride levels, total cholesterol levels, HDL levels, and LDL levels for each animal were normalized. For normalization, respective levels of ANGPTL3 protein, TG, total cholesterol, HDL, or LDL for each animal at a time point was divided by the average pre-treatment level of expression in that animal (in this case the average of day −15 and day −1) to determine the ratio of expression “normalized to pre-treatment.”
Expression at a specific time point was then normalized to the D5W control group that was administered the same diet (i.e., either the high fat “Western” diet or the normal chow-fed diet) by dividing the “normalized to pre-treatment” ratio for an individual animal by the mean “normalized to pretreatment” ratio of all mice in the D5W control group on the respective same diet, resulting in expression for each time point normalized to that in the control group.

For “AD05488: RNAi agent duplex: antisense AM07235-AS, sense AM07234-SS (antisense mU*fA*mC*fUmGfAmUfCmAfAmAfUmAfUmGfUmUfGmAfG*mC; sense {NAG37}*[invAb]*mGmCmUmCmAmAmCmAfUfAfUmUmUmGmAmUmCmAmGmUmA*[invAb])”, the “Avg HDL Normalized to Pre-Treatment and Control” value (ANGPTL3 gene [1]; 0.05 mg/kg single sc day 1, Day 8) was 0.851, the “Avg HDL Normalized to Pre-Treatment and Control” value (ANGPTL3 gene [1]; 0.05 mg/kg single sc day 1, Day 15) was 1.052 and the “Avg HDL Normalized to Pre-Treatment and Control” value (ANGPTL3 gene [1]; 0.05 mg/kg single sc day 1, Day 22) was 0.982. For the same substance, the “Avg HDL Normalized to Pre-Treatment and Control” value (ANGPTL3 gene [1]; 0.05 mg/kg single sc day 1, Day 29) was 0.894, the “Avg HDL Normalized to Pre-Treatment and Control” value (ANGPTL3 gene [1]; 0.1 mg/kg single sc day 1, Day 8) was 0.807 and the “Avg HDL Normalized to Pre-Treatment and Control” value (ANGPTL3 gene [1]; 0.1 mg/kg single sc day 1, Day 15) was 0.950. The “Avg HDL Normalized to Pre-Treatment and Control” value (ANGPTL3 gene [1]; 0.1 mg/kg single sc day 1, Day 22) was 0.806, the “Avg HDL Normalized to Pre-Treatment and Control” value (ANGPTL3 gene [1]; 0.1 mg/kg single sc day 1, Day 29) was 0.910 and the “Avg HDL Normalized to Pre-Treatment and Control” value (ANGPTL3 gene [1]; 0.5 mg/kg single sc day 1, Day 8) was 0.727. For the same substance, the “Avg HDL Normalized to Pre-Treatment and Control” value (ANGPTL3 gene [1]; 0.5 mg/kg single sc day 1, Day 15) was 0.876, the “Avg HDL Normalized to Pre-Treatment and Control” value (ANGPTL3 gene [1]; 0.5 mg/kg single sc day 1, Day 22) was 0.906 and the “Avg HDL Normalized to Pre-Treatment and Control” value (ANGPTL3 gene [1]; 0.5 mg/kg single sc day 1, Day 29) was 0.897. For the same substance, the “Avg HDL Normalized to Pre-Treatment and Control” value (ANGPTL3 gene [1]; 1.0 mg/kg single sc day 1, Day 8) was 0.575, the “Avg HDL Normalized to Pre-Treatment and Control” value (ANGPTL3 gene [1]; 1.0 mg/kg single sc day 1, Day 15) was 0.785 and the “Avg HDL Normalized to Pre-Treatment and Control” value (ANGPTL3 gene [1]; 1.0 mg/kg single sc day 1, Day 22) was 0.839. For the same substance, the “Avg HDL Normalized to Pre-Treatment and Control” value (ANGPTL3 gene [1]; 1.0 mg/kg single sc day 1, Day 29) was 0.888, the “Avg HDL Normalized to Pre-Treatment and Control” value (ANGPTL3 gene [1]; 2.5 mg/kg single sc day 1, Day 8) was 0.618 and the “Avg HDL Normalized to Pre-Treatment and Control” value (ANGPTL3 gene [1]; 2.5 mg/kg single sc day 1, Day 15) was 0.787. The “Avg HDL Normalized to Pre-Treatment and Control” value (ANGPTL3 gene [1]; 2.5 mg/kg single sc day 1, Day 22) was 0.782, the “Avg HDL Normalized to Pre-Treatment and Control” value (ANGPTL3 gene [1]; 2.5 mg/kg single sc day 1, Day 29) was 0.701 and the “Avg HDL Normalized to Pre-Treatment and Control” value (ANGPTL3 gene [1]; 5.0 mg/kg single sc day 1, Day 8) was 0.534. For the same substance, the “Avg HDL Normalized to Pre-Treatment and Control” value (ANGPTL3 gene [1]; 5.0 mg/kg single sc day 1, Day 15) was 0.717, the “Avg HDL Normalized to Pre-Treatment and Control” value (ANGPTL3 gene [1]; 5.0 mg/kg single sc day 1, Day 22) was 0.760 and the “Avg HDL Normalized to Pre-Treatment and Control” value (ANGPTL3 gene [1]; 5.0 mg/kg single sc day 1, Day 29) was 0.759. For the same substance, the “Avg HDL Normalized to Pre-Treatment and Control (Diet Matched)” value (from here on “Avg HDL Normalized … (Diet Matched)”) (ANGPTL3 gene [2]; High Fat Diet, Day 8) was 0.693, the “Avg HDL Normalized … (Diet Matched)” value (ANGPTL3 gene [2]; High Fat Diet, Day 15) was 0.735 and the “Avg HDL Normalized … (Diet Matched)” value (ANGPTL3 gene [2]; High Fat Diet, Day 22) was 0.716. For the same substance, the “Avg HDL Normalized … (Diet Matched)” value (ANGPTL3 gene [2]; High Fat Diet, Day 29 (pre-second dose)) was 0.711, the “Avg HDL Normalized … (Diet Matched)” value (ANGPTL3 gene [2]; Normal Diet, Day 8) was 0.645 and the “Avg HDL Normalized … (Diet Matched)” value (ANGPTL3 gene [2]; Normal Diet, Day 15) was 0.745. The “Avg HDL Normalized … (Diet Matched)” value (ANGPTL3 gene [2]; Normal Diet, Day 22) was 0.766 and the “Avg HDL Normalized … (Diet Matched)” value (ANGPTL3 gene [2]; Normal Diet, Day 29 (pre-second dose)) was 0.737.
